Here are results for one compound from patent US20180311238A1, “Selective Agonist Of a6 Containing nAChRs” (Saniona A/S, priority 2017, published 2018).

Assay [1] concerns primary dopaminergic neuronal culture. Put plainly: Primary dopaminergic neuronal culture injured by MPP+, number of TH positive neurons. The note with it: MPP+ 4 μM, 48H; compound 1 nM to 1 μM added 1H before intoxication. The assay is classed as cell-based, rat. From the text:
Pregnant female Wistar rats of 15 days gestation was euthanized by cervical dislocation and the foetuses was removed from the uterus. Hereafter, the embryonic midbrains was removed and placed in ice-cold medium of Leibovitz containing 2% of Penicillin-Streptomycin and 1% of bovine serum albumin (BSA). Only the ventral portions of the mesencephalic flexure were used for the cell preparations as this is the region of the developing brain rich in dopaminergic neurons. The midbrains were dissociated by trypsinisation for 20 min at 37° C. (Trypsin EDTA 1X). The reaction was stopped by the addition of DULBECCO′S MODIFIED Eagle's medium (DMEM) containing DNAse I grade II (0.1 mg/ml) and 10% foetal calf serum (FCS). Cells were then mechanically dissociated by 3 passages through a 10 ml pipette. Cells was then centrifuged at 180×g for 10 min at 4° C. on a layer of BSA (3.5%) in L15 medium. The supernatant was discarded, and the cells of pellet were re-suspended in a defined culture medium consisting of Neurobasal supplemented with B27 (2%), L-glutamine (2 mM) and 2% of PS solution and 10 ng/ml BDNF and 1 ng/ml of Glial cell-derived neurotrophic factor (GDNF). Viable cells were counted in a Neunauer cytometer using the tryphan blue exclusion test. […]
Half of the medium was changed every 2 days with fresh medium. […] Following an additional 48H of incubation, the number of TH positive neurons were counted. […]

Assay [2] addresses T1, human α4β2 nicotinic receptors (Homo sapiens, UniProt P17787+P43681).
T1 construct: expressed in transfected cells
Put plainly: FLIPR fluorescence-based calcium assay, α4β2. The assay is classed as cell-based. The note with it: FLIPR calcium response relative to nicotine. The protocol: The level of agonist activity of 9-methyl-3-pyridin-3-yl-3,9-diaza-bicyclo[3.3.1]nonane was tested in functional fluorescence-based calcium assays using TE671 cells and HEK293 cells stably expressing human α6/α3β2β3^V273S, α3β4 and α4β2 nicotinic receptors.
Cells were plated on poly-D-lysine coated 384-well microtiter plates and were allowed to proliferate for 24 h. Dye loading was performed by incubating cells with 2 μM fluo-4/AM for 1.5 h at room temperature. Dye not taken up by cells was removed by aspiration followed by three washing cycles with 25 μl of NMDG Ringer buffer (in mM: 140 NMDG, 5 KCl, 1 MgCl2, 10 CaCl2, 10 HEPES, pH 7.4) after which the cells were kept in 25 μl of the same buffer. The microtiter plates were placed in a Fluoremetric Imaging Plate Reader (FLIPR) and subjected to test compound at various concentrations. Background subtracted compound-mediated calcium responses were normalized to 100 μM nicotine control responses and pEC50 as well as relative maximal efficacy values were determined.

T1 sequence (P43681 29-627 limits assumed): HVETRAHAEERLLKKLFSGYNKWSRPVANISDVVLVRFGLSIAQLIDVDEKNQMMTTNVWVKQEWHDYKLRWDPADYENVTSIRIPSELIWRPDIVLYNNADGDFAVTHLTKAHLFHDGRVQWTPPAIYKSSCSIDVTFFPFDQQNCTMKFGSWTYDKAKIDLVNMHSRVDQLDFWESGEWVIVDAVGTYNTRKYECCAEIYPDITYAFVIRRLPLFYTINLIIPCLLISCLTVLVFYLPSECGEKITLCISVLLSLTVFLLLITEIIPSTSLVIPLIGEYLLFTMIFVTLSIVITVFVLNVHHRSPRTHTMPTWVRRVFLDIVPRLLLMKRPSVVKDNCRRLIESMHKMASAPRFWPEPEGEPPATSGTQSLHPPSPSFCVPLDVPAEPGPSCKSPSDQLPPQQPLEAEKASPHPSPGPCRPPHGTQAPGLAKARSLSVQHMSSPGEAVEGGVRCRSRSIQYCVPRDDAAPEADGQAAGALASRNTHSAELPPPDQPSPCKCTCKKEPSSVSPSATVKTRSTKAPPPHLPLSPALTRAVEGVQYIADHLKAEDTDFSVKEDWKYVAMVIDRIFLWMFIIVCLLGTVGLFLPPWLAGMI
T1 sequence (P17787 26-502): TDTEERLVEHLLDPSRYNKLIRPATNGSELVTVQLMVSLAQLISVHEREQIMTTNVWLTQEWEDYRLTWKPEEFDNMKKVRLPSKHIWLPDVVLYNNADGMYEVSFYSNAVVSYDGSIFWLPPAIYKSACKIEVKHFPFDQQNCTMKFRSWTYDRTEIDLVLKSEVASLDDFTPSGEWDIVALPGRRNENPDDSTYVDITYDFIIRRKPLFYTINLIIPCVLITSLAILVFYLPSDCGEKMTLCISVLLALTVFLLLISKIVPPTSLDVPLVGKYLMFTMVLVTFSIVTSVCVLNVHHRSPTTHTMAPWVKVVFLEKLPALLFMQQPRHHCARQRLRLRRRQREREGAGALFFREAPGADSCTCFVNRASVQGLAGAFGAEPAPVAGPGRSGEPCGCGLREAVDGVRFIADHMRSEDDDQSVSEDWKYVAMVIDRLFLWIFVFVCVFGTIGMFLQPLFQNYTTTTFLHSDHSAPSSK

On to `CN1C2CCCC1CN(c1cccnc1)C2` [9-methyl-3-pyridin-3-yl-3,9-diaza-bicyclo[3.3.1]nonane], for which the “neuroprotective effect, number of TH positive neurons” value in assay [1] is recorded as “concentration-dependent neuroprotective effect”. The efficacy entry in assay [2] was “practically no efficacy”.
